From US6451767B1, “Benzylmaltotriosides as inhibitors of smooth muscle cell proliferation” (Wyeth, priority 1998, dated 2002)

Legend:
[1] = tested on: Porcine Smooth Muscle Cell; assay: Cell proliferation using 3H thymidine incorporation; type: cell-based; settings: for IC50: serum/growth factor stimulated cells, 3H thymidine incorporation, 24-36 h, read-out: Porcine Smooth Muscle Cell Antiproliferation IC50; for inhibition at 500 µM: Sus scrofa, read-out: Porcine Smooth Muscle Cell Antiproliferation, % inhibition
Method: Effects of Compounds on Cell Proliferation Using ^3H Thymidine Incorporation
Human and porcine smooth muscle cells were tested in early passage (generally passage 3-7) at sub-confluent conditions. Cultures were grown in 16 mm (24 well) multi-well culture dishes in medium 199 supplemented with 10% fetal bovine serum and 2% antibiotic/antimycotic. At sub-confluence, the cells were placed in a defined serum free medium (AIM-V; Gibco) for 24-48 h prior to initiating the experimental protocol.
Compounds were added to each well at 50 fold dilution (20 μL/well) and the plates were incubated for 24-36 h at 37° C. in 5% CO2. Compounds were initially dissolved in 50% ethanol and serially diluted into media. Compounds were routinely evaluated at concentrations from 1 to 100 μM. As a control, grade II porcine intestinal mucosal heparin (sodium salt) was routinely evaluated in all cell preparations at concentrations from 0.1 to 100 μg/mL.
At the completion of the test procedure, plates were placed on ice, washed three times with ice cold phosphate buffered saline (PBS) and incubated in ice cold 10% trichloroacetic acid (TCA) got 30 min to remove acid soluble proteins. Solution was transferred to scintillation vials containing 0.4 N HCl (500 μL/vial to neutralize NaOH) and each well was rinsed two times with water (500 μL) for a total volume of 2 mL/vial.
Data was obtained, in triplicate, for both control and experimental samples. Control (100%) data was obtained from maximally stimulated cells, as the result of growth factor or serum stimulation. Experimental data was obtained from cells maximally stimulated with growth factor or serum and treated with compound. Data are expressed as an IC50 in Table I below.

Compound | IC50 [1] [µM] | inhibition at 500 µM [1] [%] | melting point [°C]
5-(Deca-O-acetyl-β-D-maltotriosyloxymethyl)-2-chloro-1-nitrobenzene [Example 1] | 1.8 |  | 
CC(=O)Nc1cc(COC2OC(CO)C(OC3OC(CO)C(OC4OC(CO)C(O)C(O)C4O)C(O)C3O)C(O)C2O)ccc1Cl [Example 3, N-[5-(β-D-maltotriosyloxymethyl)-2-chloro-phenyl]-acetamide] |  | 10 | 135 to 148
Nc1cc(COC2OC(CO)C(OC3OC(CO)C(OC4OC(CO)C(O)C(O)C4O)C(O)C3O)C(O)C2O)ccc1Cl [Example 5, 5-(β-D-maltotriosyloxymethyl)-2-chloro-phenylamine] |  | 25 | 95 to 134
N-[5-(Deca-O-acetyl-β-D-maltotriosyloxymethyl)-2-chloro-phenyl]-acetamide [Example 2] | 22.5 |  | 
N-[5-(Deca-O-sulfo-β-D-maltotriosyloxymethyl)-2-chloro-phenyl]-acetamide decasodium salt [Example 4] | 112 |  | 
